Legend:
[1] = biological target: KRAS G12V Ba/F3 (Homo sapiens, UniProt P01116, G12V, cells depend on it); assay: Ba/F3 proliferation assay, KRAS G12V; format: cell-based; conditions: 72 h, AlamarBlue, read-out: KRAS G12V Ba/F3 IC50
Method: Plasmids containing KRASG12 mutants(i.e. G12D, G12C, G12V) are obtained from GeneScript. To generate KRASG12-dependent Ba/F3 models, Ba/F3 cells are transduced with retroviruses containing vectors that harbor KRASG12 isoforms. Platinum-E cells (Cell Biolabs) are used for retrovirus packaging. Retrovirus is added to Ba/F3 cells. To ensure infection, 4 μg/mL polybrene is added and cells are spinfected. […] Cells with an infection efficiency of 10% to 20% are further cultivated and puromycin selection with 1 μg/mL is initiated. As a control, parental Ba/F3 cells are used to show selection status. Selection is considered successful when parental Ba/F3 cells cultures died. To evaluate the transforming potential of KRASG12 mutations, the growth medium is no longer supplemented with IL-3. Ba/F3 cells harboring the empty vector are used as a control. Approximately ten days before conducting the experiments, puromycin is left out.
Compounds are added using an Access Labcyte Workstation with a Labcyte Echo 550 or 555 accoustic dispenser. All treatments are performed in technical duplicates. […] AlamarBlue™ (ThermoFisher), a viability stain, is added and fluorescence measured in the PerkinElmer Envision HTS Multilabel Reader. The raw data are imported into and analyzed with the Boehringer Ingelheim proprietary software MegaLab (curve fitting based on the program PRISM, GraphPad Inc.).

[2] = tested on: SAS cells; assay: SAS CTG proliferation assay (120 h) (HNSCC, wt amplified); format: cell-based
Method: SAS cells (JCRB0260) are dispensed into 384-well plates, flat and clear bottom (Greiner, PNr. 781091) at a density of 300 cells per well in 60 μL DMEM:F12 (Gibco 31330-038)+10% Fetal Calf Serum (HyClone, PNr.: SH30084.03) and incubated at 37° C. in a CO2 incubator overnight The next day, compounds (10 mM stock in DMSO) are added with the ECHO acoustic liquid handler system (Beckman Coulter), including DMSO controls. Plates are incubated for 120 h, and cell viability is measured using CellTiter-Glo luminescent cell viability reagent (Promega product code G7570). Viability (stated as percent of control) is defined as relative luminescence units RLU of each well divided by the RLU of cells in DMSO controls.

[3] = Metabolic (microsomal) stability assay, human liver microsomes (HLM); format: in vitro ADME; conditions: 1 μM, predicted clearance as percent of liver blood flow
Method: The metabolic degradation of the test compound is assayed at 37° C. with pooled liver microsomes (mouse (MLM), rat (RLM) or human (HLM)). The final incubation volume of 48 μL per time point contains TRIS buffer (pH 7.5; 0.1 M), magnesium chloride (6.5 mM), microsomal protein (0.5 mg/mL for mouse/rat, 1 mg/mL for human specimens) and the test compound at a final concentration of 1 μM. Following a short preincubation period at 37° C., the reactions are initiated by addition of 12 μL beta-nicotinamide adenine dinucleotide phosphate, reduced form (NADPH, 10 mM) and terminated by transferring an aliquot into solvent after different time points (0, 5, 15, 30, 60 min). Additionally, the NADPH-independent degradation is monitored in incubations without NADPH, terminated at the last time point by addition of acetonitrile. The quenched incubations are pelleted by centrifugation (4,000 rpm, 15 min). An aliquot of the supernatant is assayed by LC-MS/MS to quantify the concentration of parent compound in the individual samples.
In vitro intrinsic clearance (CLint, in vitro) is calculated from the time course of the disappearance of the test drug during the microsomal incubation. Each plot is fitted to the first-order elimination rate constant as C(t)=C0*exp(−ke*t), where C(t) and C0 are the concentration of unchanged test drug at incubation time t and that at preincubation and ke is the disappearance rate constant of the unchanged drug. Subsequently, CLint, in vitro (μL min^−1·amount protein) values are converted to predicted CLint, in vitro (mL min^−1·kg^−1) from incubation parameters according to the equation CLint, in vitro=CLint, in vitro×(incubation volume (ml)/amount protein (mg))×(amount protein (mg)/g liver tissue)×(liver weight/body wt.). For better across species comparison the predicted clearance is expressed as percent of the liver blood flow [% QH](mL min^−1·kg^−1) in the individual species. In general, high stability (corresponding to low % QH) of the compounds across species is desired.

[4] = biological target: T1, CYP3A4 (Homo sapiens, UniProt P08684); assay: Mechanism based inhibition of CYP3A4 assay (MBI 3A4); format: in vitro ADME; conditions: human liver microsomes, 25 uM, hydroxy-midazolam formation 30 min vs 0 min preincubation
T1 construct: from tissue; host or cells: human liver microsomes
Method: The time dependent inhibition towards CYP3A4 is assayed in human liver microsomes (0.02 mg/mL) with midazolam (15 μM) as a substrate. The test compounds and water control (wells w/o test compound) are preincubated in presence of NADPH (1 mM) with human liver microsomes (0.2 mg/mL) at a concentration of 25 uM for 0 min and 30 min. After preincubation, the incubate is diluted 1:10 and the substrate midazolam is added for the main incubation (15 min). The main incubation is quenched with acetonitrile and the formation of hydroxy-midazolam is quantified via LC/MS-MS. The formation of hydroxy-midazolam from the 30 min preincubation relative to the formation from the 0 min preincubation is used as a readout. Values of less than 100% mean that the substrate midazolam is metabolized to a lower extent upon 30 min preincubation compared to 0 min preincubation. In general low effects upon 30 min preincubation are desired (corresponding to values close to 100%/not different to the values determined with water control).

T1 sequence (P08684 whole entry): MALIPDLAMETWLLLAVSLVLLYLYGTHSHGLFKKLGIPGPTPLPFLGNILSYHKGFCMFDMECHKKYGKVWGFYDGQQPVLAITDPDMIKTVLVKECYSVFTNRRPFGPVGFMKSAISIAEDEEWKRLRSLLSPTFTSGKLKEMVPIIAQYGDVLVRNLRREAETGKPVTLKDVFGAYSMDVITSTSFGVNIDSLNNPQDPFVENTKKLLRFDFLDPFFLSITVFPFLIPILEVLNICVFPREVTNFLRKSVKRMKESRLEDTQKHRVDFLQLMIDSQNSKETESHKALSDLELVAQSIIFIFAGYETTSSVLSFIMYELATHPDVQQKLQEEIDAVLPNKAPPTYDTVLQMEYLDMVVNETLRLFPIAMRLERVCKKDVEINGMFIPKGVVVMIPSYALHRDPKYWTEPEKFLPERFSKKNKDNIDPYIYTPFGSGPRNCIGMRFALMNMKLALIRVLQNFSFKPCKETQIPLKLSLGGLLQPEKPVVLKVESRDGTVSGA
Sequence of KRAS G12V Ba/F3 (P01116 whole entry G12V, canonical isoform): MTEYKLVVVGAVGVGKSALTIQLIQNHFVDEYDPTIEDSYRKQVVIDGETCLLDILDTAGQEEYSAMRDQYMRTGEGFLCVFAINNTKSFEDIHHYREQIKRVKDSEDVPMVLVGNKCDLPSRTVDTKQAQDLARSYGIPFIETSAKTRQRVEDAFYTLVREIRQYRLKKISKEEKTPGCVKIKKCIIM

Row | SMILES | GI50 [1] [nM] | HLM QH [%] [3] [%] | MBI 3A4 [%] [4] [%] | IC50 [2] [nM]
1 | C[C@H](Oc1cc(Nc2cnccn2)nc(-c2noc3c2CCC[C@@]32CCCc3sc(N)c(C#N)c32)n1)[C@@H]1CCCN1C [II-14] | 7 | <24 | 67 | 285
2 | C[C@H](Oc1cc(Nc2ccncn2)nc(-c2noc3c2CCC[C@@]32CCCc3sc(N)c(C#N)c32)n1)[C@@H]1CCCN1C [II-15] | 12 | <24 | 64 | 87
3 | C[C@H](Oc1cc(OCCO)nc(-c2noc3c2CCC[C@@]32CCCc3sc(N)c(C#N)c32)n1)[C@@H]1CCCN1C [II-6] | 7 | 40 | 61 | 40
4 | C[C@H](Oc1cc(Nc2ncccn2)nc(-c2noc3c2CCC[C@@]32CCCc3sc(N)c(C#N)c32)n1)[C@@H]1CCCN1C [II-17] | 10 | <24 | 75 | 104
5 | C[C@H](Oc1cc(O[C@@H]2CNC2(C)C)nc(-c2noc3c2CCC[C@@]32CCCc3sc(N)c(C#N)c32)n1)[C@@H]1CCCN1C [II-9] | 161 | <24 | 72 | 179

Further lines, with some results ahead:

Row | GI50 [1] [nM] | HLM QH [%] [3] [%] | MBI 3A4 [%] [4] [%] | SMILES | IC50 [2] [nM]
6 | 237 | 48 | 76 | C[C@H](Oc1cc(OCC2(N(C)C)CC2)nc(-c2noc3c2CCC[C@@]32CCCc3sc(N)c(C#N)c32)n1)[C@@H]1CCCN1C [II-21] | 577
7 | 137 | 46 | 69 | COc1c(OCC2(N(C)C)COC2)nc(-c2noc3c2CCC[C@@]32CCCc3sc(N)c(C#N)c32)nc1O[C@@H](C)[C@@H]1CCCN1C [II-25] | 55

Source: patent US20250129095A1, “ANNULATED 2-AMINO-3-CYANO THIOPHENES AND DERIVATIVES FOR THE TREATMENT OF CANCER” (Boehringer Ingelheim Int'l GmbH Corp., priority 2021, published 2025)
